Reference: ChEMBL document CHEMBL1201862, “PubChem BioAssay data set” (2004)
The source made the active and inactive calls.

Columns and labels:
Transthyretin = Transthyretin (Homo sapiens, UniProt P02766); assay: Luminescence-based cell-based high throughput dose response assay to identify activators of Transthyretin (TTR) transcription.; type: functional
Kallikrein-7 = Kallikrein-7 (Homo sapiens, UniProt P49862); assay: Fluorescence Intensity-based biochemical primary high throughput dose response assay to identify activators of kallikrein-7 (K7) zymogen.
[1] = biological target: T1, Oxysterols receptor LXR-beta (Homo sapiens, UniProt P55055); assay: LXR agonists, Gal4 luciferase reporter, dose response, counter-screen for ssDAF-12 agonist project, cell-based, luminescence, HEK293, S. stercoralis campaign (AID 720737); type: functional; conditions: read-out: IC50 (the source's name)
T1 sequence (P55055 whole entry): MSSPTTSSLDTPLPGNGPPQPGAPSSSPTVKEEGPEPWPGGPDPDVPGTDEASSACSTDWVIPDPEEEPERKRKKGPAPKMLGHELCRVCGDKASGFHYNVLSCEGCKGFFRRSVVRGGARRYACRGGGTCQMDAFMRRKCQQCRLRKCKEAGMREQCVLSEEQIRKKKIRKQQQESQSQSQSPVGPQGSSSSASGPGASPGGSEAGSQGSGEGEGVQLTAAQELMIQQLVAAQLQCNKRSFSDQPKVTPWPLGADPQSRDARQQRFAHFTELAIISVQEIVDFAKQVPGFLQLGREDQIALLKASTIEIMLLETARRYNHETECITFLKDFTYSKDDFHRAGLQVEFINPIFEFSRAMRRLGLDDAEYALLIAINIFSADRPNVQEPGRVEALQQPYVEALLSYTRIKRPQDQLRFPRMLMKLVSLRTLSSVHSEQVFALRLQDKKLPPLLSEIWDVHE

[2] = Luminescence-based cell-based high throughput dose response assay to identify activators of the DAF-12 from the parasite S. stercoralis (ssDAF-12).; type: functional
[3] = biological target: 1-phosphatidylinositol 4,5-bisphosphate phosphodiesterase gamma-1 (Homo sapiens, UniProt P19174); assay: Counterscreen for inhibitors of phospholipase C isozymes (PLC-B3): Fluorescence-based biochemical high throughput dose response assay to identify inhibitors of phospholipase C isozymes (PLC-gamma1).
[4] = biological target: 1-phosphatidylinositol 4,5-bisphosphate phosphodiesterase beta-3 (Homo sapiens, UniProt Q01970); assay: Fluorescence-based biochemical high throughput dose response assay to identify inhibitors of phospholipase C isozymes (PLC-B3).
Sequence of 1-phosphatidylinositol 4,5-bisphosphate phosphodiesterase beta-3 (Q01970 whole entry): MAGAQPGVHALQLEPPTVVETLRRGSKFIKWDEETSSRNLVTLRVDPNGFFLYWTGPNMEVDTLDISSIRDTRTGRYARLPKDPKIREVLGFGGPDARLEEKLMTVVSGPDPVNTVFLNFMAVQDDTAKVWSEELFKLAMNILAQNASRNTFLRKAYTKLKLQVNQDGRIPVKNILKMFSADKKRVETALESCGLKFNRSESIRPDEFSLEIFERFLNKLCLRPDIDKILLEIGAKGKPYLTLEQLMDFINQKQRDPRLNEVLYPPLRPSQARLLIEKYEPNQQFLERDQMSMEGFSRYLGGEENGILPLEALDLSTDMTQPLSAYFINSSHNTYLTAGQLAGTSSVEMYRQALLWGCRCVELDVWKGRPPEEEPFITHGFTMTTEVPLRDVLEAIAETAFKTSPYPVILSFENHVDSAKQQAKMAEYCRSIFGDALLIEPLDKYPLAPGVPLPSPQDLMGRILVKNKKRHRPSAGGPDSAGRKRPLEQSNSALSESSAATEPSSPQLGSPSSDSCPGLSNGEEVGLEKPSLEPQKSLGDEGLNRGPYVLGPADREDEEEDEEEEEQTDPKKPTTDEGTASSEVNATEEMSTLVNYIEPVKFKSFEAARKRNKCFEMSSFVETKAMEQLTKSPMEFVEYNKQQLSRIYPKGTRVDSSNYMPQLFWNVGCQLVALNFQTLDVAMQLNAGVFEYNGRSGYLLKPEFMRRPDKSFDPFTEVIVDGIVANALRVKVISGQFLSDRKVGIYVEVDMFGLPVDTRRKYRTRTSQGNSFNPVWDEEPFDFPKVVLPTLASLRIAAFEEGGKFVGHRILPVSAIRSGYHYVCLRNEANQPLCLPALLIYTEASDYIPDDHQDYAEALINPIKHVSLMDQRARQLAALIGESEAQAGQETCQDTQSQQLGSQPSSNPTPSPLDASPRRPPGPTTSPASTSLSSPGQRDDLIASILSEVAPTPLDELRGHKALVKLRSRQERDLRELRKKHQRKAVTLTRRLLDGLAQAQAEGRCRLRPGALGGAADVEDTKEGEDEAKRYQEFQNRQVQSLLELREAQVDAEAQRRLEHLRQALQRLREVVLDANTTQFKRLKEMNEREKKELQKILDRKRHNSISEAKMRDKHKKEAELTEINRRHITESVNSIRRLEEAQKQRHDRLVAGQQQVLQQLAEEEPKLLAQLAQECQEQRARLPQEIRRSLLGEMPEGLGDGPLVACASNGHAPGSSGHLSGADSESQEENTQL

Sequence of 1-phosphatidylinositol 4,5-bisphosphate phosphodiesterase gamma-1 (P19174 whole entry): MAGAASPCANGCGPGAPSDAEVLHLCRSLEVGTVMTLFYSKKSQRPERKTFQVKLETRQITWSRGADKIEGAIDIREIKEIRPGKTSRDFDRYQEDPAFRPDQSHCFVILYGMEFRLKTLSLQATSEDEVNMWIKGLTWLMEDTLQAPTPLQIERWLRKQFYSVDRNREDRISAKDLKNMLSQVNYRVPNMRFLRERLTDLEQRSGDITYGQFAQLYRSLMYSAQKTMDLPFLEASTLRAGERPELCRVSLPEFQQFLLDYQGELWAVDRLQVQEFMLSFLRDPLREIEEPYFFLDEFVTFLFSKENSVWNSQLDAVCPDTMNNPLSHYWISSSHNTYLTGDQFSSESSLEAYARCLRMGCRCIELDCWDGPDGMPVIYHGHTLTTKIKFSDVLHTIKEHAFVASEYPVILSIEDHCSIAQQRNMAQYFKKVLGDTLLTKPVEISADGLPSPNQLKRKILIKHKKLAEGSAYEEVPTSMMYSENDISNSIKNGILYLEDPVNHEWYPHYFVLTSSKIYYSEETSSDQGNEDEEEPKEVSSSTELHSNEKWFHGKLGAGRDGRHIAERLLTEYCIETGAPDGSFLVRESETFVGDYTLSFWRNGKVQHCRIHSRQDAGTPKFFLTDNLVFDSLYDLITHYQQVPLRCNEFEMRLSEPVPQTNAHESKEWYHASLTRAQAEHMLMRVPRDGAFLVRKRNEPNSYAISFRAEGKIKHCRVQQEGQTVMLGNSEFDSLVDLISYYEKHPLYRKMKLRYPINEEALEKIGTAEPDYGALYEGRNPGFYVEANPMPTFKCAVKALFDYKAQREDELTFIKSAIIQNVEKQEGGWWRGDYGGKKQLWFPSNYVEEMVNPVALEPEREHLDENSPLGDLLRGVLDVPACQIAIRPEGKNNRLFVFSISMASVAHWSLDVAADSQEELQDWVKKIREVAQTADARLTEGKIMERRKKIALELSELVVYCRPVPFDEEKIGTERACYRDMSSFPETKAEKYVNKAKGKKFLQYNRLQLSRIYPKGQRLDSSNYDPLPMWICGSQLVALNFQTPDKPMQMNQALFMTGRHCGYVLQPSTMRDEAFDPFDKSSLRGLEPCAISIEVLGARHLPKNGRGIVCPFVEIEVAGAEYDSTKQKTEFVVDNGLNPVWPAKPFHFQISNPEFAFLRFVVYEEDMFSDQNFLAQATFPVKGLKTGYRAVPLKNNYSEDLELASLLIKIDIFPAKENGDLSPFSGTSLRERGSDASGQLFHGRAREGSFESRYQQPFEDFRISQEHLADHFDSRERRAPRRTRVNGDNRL
Sequence of Kallikrein-7 (P49862 whole entry, the tested form may be a part): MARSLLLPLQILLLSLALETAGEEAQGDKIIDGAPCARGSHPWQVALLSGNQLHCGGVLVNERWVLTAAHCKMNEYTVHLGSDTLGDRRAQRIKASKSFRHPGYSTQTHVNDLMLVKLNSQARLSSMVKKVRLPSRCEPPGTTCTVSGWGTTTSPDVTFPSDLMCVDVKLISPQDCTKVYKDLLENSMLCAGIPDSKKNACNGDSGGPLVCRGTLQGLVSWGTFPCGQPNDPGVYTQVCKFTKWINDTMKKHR

SMILES | EC50 (Transthyretin) | EC50 [1] | IC50 [2] | other results
CC(C)CNC(=O)CSc1nnc2ccccn12 | > 167 µM (inactive) | – | – | –
COc1ccc(C2Nc3ccccc3C(=O)N2NS(C)(=O)=O)cc1OC (centres undefined) | – | – | – | EC50 (Kallikrein-7): 38.8 µM (inactive)
Cc1cccc(NC(c2ccc(O)cc2)c2ccc3ccc(C)nc3c2O)n1 (centres undefined) | > 167 µM (inactive) | – | – | –
Cc1ccc2nsnc2c1NC(=O)c1cccnc1Cl | – | > 67.5 µM (inactive) | > 67.5 µM (inactive) | –
O=C(O)C(=O)/C(=C\c1ccccc1)c1ccc2ccccc2n1 | – | > 67.5 µM (inactive) | > 67.5 µM (inactive) | –
O=Cc1cc(N=Nc2ccc(S(=O)(=O)O)cc2)ccc1O | – | – | – | IC50 [3]: 39.3 µM (inactive); IC50 [4]: > 122 µM (inactive)
